Reference: patent publication US8299096B2, “Method for treating pulmonary diseases using rho kinase inhibitor compounds” (priority 2008, dated 2012)

Legend:
[1] = system: ovalbumin-sensitized mice; assay: Bronchodilator assay in ovalbumin-sensitized mouse model of asthma (Penh); type: in vivo; details: for Reduction in airway hyperresponsivness: oral doses
Method: Male BALB/c mice were ordered from Charles River Laboratories (Raleigh, N.C.). The animals were approximately 19 to 21 grams at time of receipt. Upon arrival, the animals were randomized into groups of five males per cage and assigned to a dosing group. Animals were quarantined for 7 days under test conditions. They were observed daily for general health status and ability to adapt to the water bottles.
Animals were sensitized on day 0 and 14 of study by an intraperitoneal injection with 20 μg of ovalbumin (ova) and 2.0 mg aluminum hydroxide (alum) which initiates the development of a specific T-helper (Th) cells type 2 resulting in asthmatic animals. One group of animals received an injection of saline to use as non-asthmatic control animals. All animals were challenged with aerosolized 1% ova once daily for 25 minutes on days 28, 29, and 30 (Zosky, et al. Respiratory Research, 2004; 5:15). Aerosol challenge consists of using an Aerogen Aeroneb nebulizer and controller with a particle size of 4-6 μm mass median aerodynamic diameter (MMAD) with a distribution of 400 μl per minute. This aerosol challenge is necessary to target the Th2-driven allergic inflammation in the lower airways.
The test compounds and the control vehicle were administered to animals on the day of airway hyperreactivity evaluation 30 minutes to 1 hour before the evaluation to determine the bronchodilator effects of the compounds according to the bronchodilator dosing paradigm (FIG. 3A). Compounds were administered p.o. (orally), i.p. (intraperitoneally) at 15 μMol/kg unless otherwise noted (Table 4). Alternatively, compounds were administered i.t. (intratracheally) at varying doses as shown (FIG. 3B). On day 32 of the experiment, airway hyperreactivity was evaluated by placing conscious, unrestrained animals in a whole body plethysmometer (Buxco Wilmington, N.C.) and exposing them to escalating doses of nebulized methacholine, a known bronchial constrictor which acts through the muscarinic receptors of the lungs, (doses: […]-50 mg/ml). Exposure to the methacholine doses consisted of a 3 minute period during which a nebulizer was aerosolizing the methacholine and an additional 3 minute period following the cessation of nebulization. Over this 6 minute period, the plethysmometer monitors and generates numerical values for all parameters of the breath pattern. Enhanced pause (Penh), a unitless index of airway hyperreactivity, is derived from the expiratory side of the respiratory waveform measured via the plethysmograph and is used as an indirect measure of airway resistance and hyperreactivity. […] Following the methacholine dose response, all animals were anesthetized, bled and euthanized.
Within each experiment, a mouse was given a single compound and exposed to increasing doses of methacholine [0 (baseline), 0.375, 0.75, 1.5, 3, 6, 12, 25, 50 mg/ml]. The Penh value at each of the dose levels of methacholine represents the 6-minute average response. Change from baseline (CFB) in Penh was calculated at each methacholine dose and the area under the curve (AUC) for these CFB values was calculated using the trapezoidal rule. This same approach was applied for each mouse across multiple experiments.
For statistical analyses, a linear mixed-effects model where the response was the log 10 transformed value of AUC described above was used. Data from equal experimental conditions across experiments performed on different days were pooled for statistical analysis and data reporting. The various compounds were compared adjusting for the log 10-transformed baseline value of Penh and the chamber (1 of 10) of the plethysmometer each mouse was contained in during an experiment. A random intercept for each experiment was assumed to account for possible similarities of the results obtained from a given experiment (i.e., as a “blocking effect”).
For Table 4 and Table 5, Penh values are reported as log 10 transformed AUC values. […]

[2] = Compound plasma concentrations in mice at 15 min post administration; type: in vivo, mouse; details: mouse plasma, 15 minutes, oral
Method: Additionally, compound concentrations were determined in the plasma and lungs of male, ovalbumin-sensitized, Balb/c mice from a murine model of asthma. Test compounds were formulated in water or 1% polysorbate 80 and dosed at 15 μmol/kg for intraperitoneal (IP) or oral (PO) administration or formulated for intratracheal (IT) administration and dosed at 5 μmol/kg, which directly targets the lungs. Following completion of the in vivo study, mice were euthanized and blood and plasma collected approximately 2.5-3 hours post administration of test compound for bronchodialator (BD) studies and 24 hours post administration for anti-inflamatory (AI) studies. Lungs were homogenized in Matrix A lysing tubes using a FastPrep 24 tissue and cell homogenizer (MP Biomedicals, Solon, Ohio). Both plasma samples and lung extracts were assayed for compound concentrations using an on-line, solid phase extraction LC/MS/MS system.

[3] = system: ovalbumin-sensitized mice; assay: Prevention of airway hyperreactivity development, anti-inflammatory dosing paradigm (Penh); type: in vivo, mouse
[4] = system: ovalbumin-sensitized mice; assay: Anti-inflammatory assay in ovalbumin-sensitized mouse model of asthma (BALF cells and cytokines); type: in vivo; details: dosed orally to day 31, anti-inflammatory dosing paradigm
Source text: Mouse model of asthma via ovalbumin sensitization was created as described in Example 5. The anti-inflammatory dosing paradigm (FIG. 4) was utilized to evaluate the anti-inflammatory effects of experimental compounds. The anti-inflammatory dosing paradigm consists of dosing the animals once a day starting on day 27 and finishing on either day 30 or 31 (1 hr prior to the aerosolized ovalbumin challenges on days 28 to 30) but not on day 32 when hyper-reactivity evaluation occurs.
Bronchoalveolar lavage fluid (BALF) was collected by infusing 3.0 ml of saline with 10% fetal calf serum into the lungs via the trachea and then withdrawing the fluid. The total amount of cells/ml of BALF fluid was determined via manual cell count on hemocytometer. The BALF was centrifuged, supernatant removed and analyzed for cytokine concentrations as described below, and cell pellet reconstituted in 500 μL of fluid. Cytospin slides were prepared from the cell pellet using 100 μL of fluid and spinning samples for 5 minutes at 5000 rpms in a cytospin centrifuge. Following Hema3 stain, relative percentages of individual leukocytes were determined on a 200 cell count for each sample. The final concentration of individual leukocyte cell types per ml of BALF was determined by multiplication of the relative percentage of individual leukocytes with the total amount of cells/ml of BALF fluid.
The concentrations of cytokines in the BALF samples were determined using commercially available Bio-plex kits (Bio-Rad) for the detection of mouse IL-5, IL-13, and Eotaxin. The analysis of cytokine levels was measured using the Bio-Plex 200 (Bio-Rad) system according to the manufacturer's instructions.

[5] = Rat oral pharmacokinetics (plasma); type: in vivo
Method: Plasma (EDTA K2 anticoagulant) was collected from male, cannulated, CD Sprague Dawley rats to determine the pharmacokinetics of formulations containing compound inhibitors of Rho kinase. Each animal was dosed orally with a 4 ml/kg solution or suspension of each test compound in 10 mM acetate buffered saline, pH 4.5 at a final concentration range of 20-30 μmol/kg. Blood was collected at 0.25, 0.5, 1, 2, 4, 6, 8, and 24 hours. Plasma samples were assayed for the concentration of the test compound using an on-line, solid phase extraction LC/MS/MS analysis system.
Samples were analyzed on a QSTAR Elite, hybrid quadrupole time-of-flight mass spectrometer (Applied Biosystems, Framingham, Mass.) coupled with a Symbiosis Pharma integrated, on-line SPE-HPLC system (Spark Holland Inc., Plainsboro, N.J.). Analyst QS 2.0 software was used for instrument control, data acquisition and processing. […] Mobile Phase A consisted of 0.1% ammonium hydroxide in water and Mobile Phase B consisted of 0.1% formic acid in acetonitrile. Pharmacokinetic analyses were performed using WinNonlin software version 5.2 (Pharsight Corporation, Mountain View, Calif.).

rat tracheal rings = assay: Tracheal relaxation assay, carbachol precontracted rings; details: average percentage of carbachol-induced rat trachael ring contraction at 1 μM of test compound
Method: Trachea were excised, cleaned of connective tissue and cut into cylindrical segments of 2-3 mm length. Two stainless steel wires were guided through the lumen of the tracheal ring. One wire was fixed in the tissue bath and the other was connected to a force transducer via surgical silk. […] Indomethacin (1 μM), a cyclooxygenase inhibitor, was added to the Krebs buffer and was present throughout the experiments. Contractile tensions were measured using an isometric force transducer (Grass Instruments) and signals were analyzed using specialized software (Chart v5.5, ADInstruments). The preparations were allowed to equilibrate at a resting tension of 0.3 to 0.5 gm prior to two challenges with 60 mM KCl to assess tissue viability. After washing, tissues were treated with 1 μM carbachol for 10 to 15 minutes to induce a contractile response. Test Compounds were added cumulatively to the bath every 30 minutes and reductions in tension were recorded. Basal tension was subtracted from all values and data were reported as a percentage of the maximal carbachol-induced contraction. Data were fit to the Hill equation using GraphPad Prism v5 software.

Mnk2 = target: T1, Mnk2 (Homo sapiens, UniProt Q9HBH9); assay: Kinase panel screen, Mnk2; type: biochemical; details: 10 μM ATP
T1 construct: purchased Upstate, Millipore Bioscience Division (KinaseProfiler service)
T1 sequence (Q9HBH9 whole entry): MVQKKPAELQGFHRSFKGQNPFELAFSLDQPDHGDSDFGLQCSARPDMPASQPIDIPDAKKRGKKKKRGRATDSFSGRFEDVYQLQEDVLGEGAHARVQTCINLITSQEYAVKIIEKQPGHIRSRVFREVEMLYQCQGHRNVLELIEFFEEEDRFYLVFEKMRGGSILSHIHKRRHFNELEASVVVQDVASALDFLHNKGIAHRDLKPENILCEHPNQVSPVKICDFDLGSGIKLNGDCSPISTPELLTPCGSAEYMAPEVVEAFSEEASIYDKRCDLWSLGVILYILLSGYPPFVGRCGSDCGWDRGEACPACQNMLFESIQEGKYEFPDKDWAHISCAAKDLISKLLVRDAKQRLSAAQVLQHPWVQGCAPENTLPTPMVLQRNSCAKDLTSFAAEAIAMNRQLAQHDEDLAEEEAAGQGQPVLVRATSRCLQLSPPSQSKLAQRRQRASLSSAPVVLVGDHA
Method: (§1) Compounds of Formulae I and II were examined for activity against a selected panel of kinases using the KinaseProfiler™ enzyme profiling services (Upstate, Millipore Bioscience Division). Percent kinase activity at 10 μM and 1 μM test compound and 10 μM ATP was determined against 40 wild-type recombinant human kinases according to Upstate's standard protocol: ASK1, BTK, CSK, c-RAF, GCK, GSK3β, IKKα, IKKβ, IRAK1, IRAK4, JNK1α1, JNK2α2, JNK3, ERK1, ERK2, MAPKAP-K2, MAPKAP-K3, MEK1, MKK4, MKK6, MKK7β, Mnk2, MSK1, PAK3, PDK1, PRAK, ROCK1, Rsk2, SAPK2a, SAPK2b, SAPK3, SAPK4, SRPK1, SRPK2, Syk, TAK1, TBK1, PI3-Kβ, PI3-Kγ, PI3-Kδ.

IRAK1 = target: T2, IRAK1 (Homo sapiens, UniProt P51617); assay: Kinase panel screen, IRAK1; type: biochemical; details: 10 μM ATP
T2 construct: purchased Upstate, Millipore Bioscience Division (KinaseProfiler service)
T2 sequence (P51617 whole entry): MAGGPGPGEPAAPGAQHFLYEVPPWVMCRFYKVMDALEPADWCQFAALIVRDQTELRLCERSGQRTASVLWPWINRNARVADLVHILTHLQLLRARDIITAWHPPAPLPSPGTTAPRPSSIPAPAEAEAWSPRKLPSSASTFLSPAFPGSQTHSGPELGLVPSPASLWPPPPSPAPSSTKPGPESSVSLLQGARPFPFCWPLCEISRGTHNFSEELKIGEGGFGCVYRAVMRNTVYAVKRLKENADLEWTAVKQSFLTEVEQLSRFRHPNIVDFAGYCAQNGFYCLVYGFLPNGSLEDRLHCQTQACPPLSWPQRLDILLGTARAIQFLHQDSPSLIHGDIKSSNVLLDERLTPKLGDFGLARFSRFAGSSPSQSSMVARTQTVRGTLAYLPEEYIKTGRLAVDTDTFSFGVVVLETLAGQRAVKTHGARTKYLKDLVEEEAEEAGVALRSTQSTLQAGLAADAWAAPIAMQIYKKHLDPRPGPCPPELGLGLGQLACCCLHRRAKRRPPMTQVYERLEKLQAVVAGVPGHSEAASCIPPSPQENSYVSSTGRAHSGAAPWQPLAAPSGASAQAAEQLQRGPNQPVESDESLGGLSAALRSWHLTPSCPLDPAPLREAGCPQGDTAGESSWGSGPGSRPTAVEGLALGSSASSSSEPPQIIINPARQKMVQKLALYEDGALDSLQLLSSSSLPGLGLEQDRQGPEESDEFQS
Method: as §1

GCK = target: T3, GCK (Homo sapiens, UniProt Q12851); assay: Kinase panel screen, GCK; type: biochemical; details: 1 μM test compound, 10 μM ATP
T3 construct: purchased Upstate, Millipore Bioscience Division (KinaseProfiler service)
T3 sequence (Q12851 1-820): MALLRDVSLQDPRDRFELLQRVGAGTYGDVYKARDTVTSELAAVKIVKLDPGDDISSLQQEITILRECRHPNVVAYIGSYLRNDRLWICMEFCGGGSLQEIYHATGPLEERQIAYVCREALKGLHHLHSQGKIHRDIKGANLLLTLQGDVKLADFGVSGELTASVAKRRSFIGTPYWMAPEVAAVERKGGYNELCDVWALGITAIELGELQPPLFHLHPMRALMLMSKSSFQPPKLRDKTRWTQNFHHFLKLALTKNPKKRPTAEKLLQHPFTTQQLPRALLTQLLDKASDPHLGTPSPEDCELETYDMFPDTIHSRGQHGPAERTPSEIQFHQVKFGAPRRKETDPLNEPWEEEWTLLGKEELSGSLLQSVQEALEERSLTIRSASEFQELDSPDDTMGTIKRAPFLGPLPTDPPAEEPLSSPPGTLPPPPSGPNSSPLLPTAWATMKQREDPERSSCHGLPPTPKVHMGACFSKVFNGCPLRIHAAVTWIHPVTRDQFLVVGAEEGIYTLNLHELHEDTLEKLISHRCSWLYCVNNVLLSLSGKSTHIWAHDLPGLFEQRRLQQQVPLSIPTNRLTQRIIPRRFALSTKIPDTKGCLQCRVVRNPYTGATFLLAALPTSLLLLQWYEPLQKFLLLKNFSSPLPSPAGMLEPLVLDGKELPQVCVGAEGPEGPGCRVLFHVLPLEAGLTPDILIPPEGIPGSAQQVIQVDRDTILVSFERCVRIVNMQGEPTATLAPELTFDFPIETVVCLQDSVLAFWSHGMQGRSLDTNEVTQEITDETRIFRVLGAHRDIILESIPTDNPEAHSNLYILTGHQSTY
Method: as §1

IRAK4 = target: T4, IRAK4 (Homo sapiens, UniProt Q9NWZ3); assay: Kinase panel screen, IRAK4; type: biochemical; details: 10 μM ATP
T4 construct: purchased Upstate, Millipore Bioscience Division (KinaseProfiler service)
T4 sequence (Q9NWZ3 1-460): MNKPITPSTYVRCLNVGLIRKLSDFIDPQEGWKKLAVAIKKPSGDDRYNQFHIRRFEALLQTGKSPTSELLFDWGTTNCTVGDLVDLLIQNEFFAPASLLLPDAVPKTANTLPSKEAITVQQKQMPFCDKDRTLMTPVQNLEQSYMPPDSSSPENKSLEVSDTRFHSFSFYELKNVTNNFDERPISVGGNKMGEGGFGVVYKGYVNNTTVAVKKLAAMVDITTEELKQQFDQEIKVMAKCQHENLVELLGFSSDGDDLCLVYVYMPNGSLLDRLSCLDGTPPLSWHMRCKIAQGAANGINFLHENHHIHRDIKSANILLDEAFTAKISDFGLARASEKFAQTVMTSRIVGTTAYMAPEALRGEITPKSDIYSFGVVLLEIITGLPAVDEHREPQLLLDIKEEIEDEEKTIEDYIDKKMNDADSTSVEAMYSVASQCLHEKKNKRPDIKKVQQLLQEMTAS
Method: as §1

[6] = rat, oral, 20-30 μmol/kg, plasma, mean n = 3

| Percent inhibition, Mnk2 (Mnk2; 1 μM test compound) [%] | Percent inhibition, Mnk2 (Mnk2; 10 μM test compound) [%] | Percent inhibition, IRAK1 (IRAK1; 1 μM test compound) [%] | Percent inhibition, IRAK1 (IRAK1; 10 μM test compound) [%] | percent inhibition at 1 µM (GCK) [%] | Percent inhibition, IRAK4 (IRAK4; 1 μM test compound) [%] | Percent inhibition, IRAK4 (IRAK4; 10 μM test compound) [%] | Structure (SMILES) | Reduction in airway hyperresponsivness [1] | Detection in mouse plasma 15 minutes after oral dosing [2] | Prevention of airway hyperreactivity to metacholine on Day 32 ([3]; oral, 15 μMol/kg once a day during days 27 to 31) | Airway eosinophil infiltration (eosinophils per ml of BALF) [4] | Oral bioavailability ([5]; oral dosing) | AUC (0-last) [5, 6] | Cmax [5, 6] | Reduction in airway hyperresponsiveness ([1]; i.p. route of administration, compared to oral dosing) | Trachael Ring Contraction (rat tracheal rings) [%] | Prevention of airway hyperreactivity ([3]; intratracheal, once a day, days 27 to 30 (1.091) or 27 to 31) |
| --- | --- | --- | --- | --- | --- | --- | --- | --- | --- | --- | --- | --- | --- | --- | --- | --- | --- |
| – | – | – | – | – | – | – | c1cc2cc(CN3CCC[C@@H](Nc4ccc5[nH]ncc5c4)C3)ccc2o1 [Compound 1.131] | statistically significant reduction | readily detectable | prevention of airway hyperreactivity | reduced | – | – | – | – | – | – |
| – | – | – | – | – | – | – | CCc1ccc(CN2CCC[C@@H](Nc3ccc4[nH]ncc4c3)C2)cc1 [Compound 1.136] | did not yield a significant reduction | – | – | – | poor | below the level of quantification | below the level of quantification | enhanced reduction | 45 | – |
| 108 | 106 | 106 | 99 | 96 | 96 | 109 | Cc1ccc(CN2CCC[C@@H](Nc3ccc4[nH]ncc4c3)C2)cc1OCCO [Compound 1.161] | – | – | – | – | – | – | – | – | – | prevention of airway hyperreactivity |
| 111 | 65 | 100 | 97 | 93 | 105 | 88 | NC(=O)Cn1ccc2cc(CN3CCC[C@@H](Nc4ccc5[nH]ncc5c4)C3)ccc21 [Compound 1.162] | – | – | – | – | – | – | – | – | – | – |
